The values below come from ChEMBL document CHEMBL3045868, “Synthesis and antibacterial activities of para-alkoxy phenyl--ketoaldehyde derivatives” (Med Chem Res, 2013).

≈ marks a conversion by molar mass, not a printed value.

What all share (type): functional
The subject of one experiment is Staphylococcus aureus. The experiment in a line: Antibacterial activity against Staphylococcus aureus ATCC 25923 assessed as growth inhibition after 16 to 18 hr by NCCLS agar dilution method.
For the next experiment, the system named is Escherichia coli. Nature of the experiment: Antibacterial activity against Escherichia coli ATCC 25922 assessed as growth inhibition after 16 to 18 hr NCCLS agar dilution method.
The subject of a further experiment is Pseudomonas aeruginosa. Nature of the experiment: Antibacterial activity against Pseudomonas aeruginosa ATCC 27853 assessed as growth inhibition after 16 to 18 hr NCCLS agar dilution method. (In general: In agar dilution the substance is mixed into plates at graded concentrations.)

On to `CCO/N=C(/C/C=N/OCC)c1ccc(OCC)cc1`, for which the MIC in the experiment with Staphylococcus aureus, in the experiment with Escherichia coli and with Pseudomonas aeruginosa was greater than 64 µg/mL each time.

As for `CCCCOc1ccc(/C(C/C=N/OCC)=N\OCC)cc1`, the MIC in the experiment on Staphylococcus aureus, with Escherichia coli and in the experiment with Pseudomonas aeruginosa was greater than 64 µg/mL in each case.

On to `CCO/N=C/CC(=O)c1ccc(OC)cc1`, for which the MIC is 4 µg/mL (≈ 18.1 µM) in the experiment on Staphylococcus aureus, greater than 64 µg/mL in the experiment on Escherichia coli and greater than 64 µg/mL in the experiment on Pseudomonas aeruginosa.

In the case of `CCO/N=C/CC(=O)c1ccc(OC(C)C)cc1`, the MIC with Staphylococcus aureus, in the experiment with Escherichia coli and in the experiment on Pseudomonas aeruginosa was greater than 64 µg/mL each time.

With `CCO/N=C(/C/C=N/OCC)c1ccc(OC(C)C)cc1`, the MIC in the experiment on Staphylococcus aureus, in the experiment on Escherichia coli and in the experiment with Pseudomonas aeruginosa was greater than 64 µg/mL throughout.

For `CCO/N=C(/C/C=N/OCC)c1ccc(OC)cc1`, the MIC in the experiment with Staphylococcus aureus, in the experiment with Escherichia coli and in the experiment with Pseudomonas aeruginosa was greater than 64 µg/mL throughout.

`CO/N=C(/C/C=N/OC)c1ccc(OC)cc1`: the MIC with Staphylococcus aureus, with Escherichia coli and in the experiment with Pseudomonas aeruginosa was greater than 64 µg/mL each time.

On to `CCCCOc1ccc(C(=O)C/C=N/OCC)cc1`, for which the MIC in the experiment with Staphylococcus aureus, with Escherichia coli and in the experiment with Pseudomonas aeruginosa was greater than 64 µg/mL in each case.

As to `CO/N=C/CC(=O)c1ccc(OC(C)C)cc1`, the MIC in the experiment with Staphylococcus aureus, in the experiment with Escherichia coli and in the experiment with Pseudomonas aeruginosa was greater than 64 µg/mL throughout.

As to `CCOc1ccc(C(=O)C/C=N/OC)cc1`, the MIC with Staphylococcus aureus is 32 µg/mL (≈ 145 µM); in the experiment with Escherichia coli it was greater than 64 µg/mL; in the experiment on Pseudomonas aeruginosa, greater than 64 µg/mL.

For the compound `CCCCOc1ccc(C(=O)C/C=N/OC)cc1`, the MIC in the experiment with Staphylococcus aureus is greater than 64 µg/mL; in the experiment with Escherichia coli, greater than 64 µg/mL; with Pseudomonas aeruginosa, 64 µg/mL (≈ 257 µM).

For the compound `CCO/N=C/CC(=O)c1ccc(OCC)cc1`, the results for the MIC in the experiment with Staphylococcus aureus, in the experiment with Escherichia coli and in the experiment with Pseudomonas aeruginosa were 64 µg/mL (≈ 272 µM), greater than 64 µg/mL and greater than 64 µg/mL, respectively.

Turning to `CCOc1ccc(/C(C/C=N/OC)=N\OC)cc1`, the MIC in the experiment on Staphylococcus aureus, in the experiment with Escherichia coli and in the experiment on Pseudomonas aeruginosa was greater than 64 µg/mL throughout.

For the compound `CO/N=C(/C/C=N/OC)c1ccc(OC(C)C)cc1`, the MIC in the experiment with Staphylococcus aureus, in the experiment with Escherichia coli and with Pseudomonas aeruginosa was greater than 64 µg/mL each time.

Usually MIC stands for the lowest concentration found to suppress growth.
